Experimental data from the NIST ThermoML archive (doi:10.1021/je900732r).

Test: mn = molality of the nth substance listed, in mol/kg
Conditions: 101 kPa, Liquid; for speed of sound: Pulse-echo method

[Co+2].[O-][Cl+3]([O-])([O-])[O-].[O-][Cl+3]([O-])([O-])[O-] [cobalt(II) perchlorate] + CO
Conditions	mass density, 283.15 K [kg/m3]	mass density, 288.15 K [kg/m3]	mass density, 293.15 K [kg/m3]	mass density, 298.15 K [kg/m3]	mass density, 303.15 K [kg/m3]	mass density, 308.15 K [kg/m3]	mass density, 313.15 K [kg/m3]	speed of sound, 298.15 K [m/s]
m1 = 0.04954	810.666	806.009	801.334	796.648	791.945	787.216	782.455	1108.2
m1 = 0.0652	813.871	809.222	804.551	799.871	795.174	790.456	785.712	1110.5
m1 = 0.08043	816.972	812.325	807.661	802.983	798.285	793.568	788.838	1112.6
m1 = 0.09601	820.184	815.542	810.881	806.21	801.517	796.812	792.084	1114.6
m1 = 0.1106	823.205	818.568	813.913	809.247	804.564	799.855	795.128	1116.9
m1 = 0.1255	826.259	821.625	816.975	812.313	807.634	802.929	798.211	1118.6
m1 = 0.157	832.839	828.214	823.572	818.918	814.251	809.557	804.844	1122.7
m1 = 0.1876	839.345	834.726	830.096	825.452	820.793	816.116	811.415	1127
m1 = 0.2171	845.636	841.028	836.402	831.765	827.115	822.438	817.746	1131
m1 = 0.2464	851.879	847.275	842.656	838.024	833.388	828.73	824.046	1135
m1 = 0.2747	858.053	853.458	848.847	844.226	839.592	834.938	830.254	1138.9
m1 = 0.3036	864.446	859.854	855.253	850.642	846.019	841.375	836.709	1143
